Test results published in publication PMC4201470, “THDP17 Decreases Ammonia Production through Glutaminase Inhibition. A New Drug for Hepatic Encephalopathy Therapy” (PLoS ONE, 2014).
“Also recorded” adds a separate entry of the source. Marks after values point to notes of the source that are not given here. Blank lines part the entries; values can stand above or below the molecule they belong to.

Key:
[1] = biological target: T1, PAG (Rattus norvegicus, UniProt P13264); test: In vitro PAG inhibition by drugs used in HE therapy; type: biochemical; settings: for effect on PAG activity in vitro: 10 mM
T1 sequence (P13264 55-674): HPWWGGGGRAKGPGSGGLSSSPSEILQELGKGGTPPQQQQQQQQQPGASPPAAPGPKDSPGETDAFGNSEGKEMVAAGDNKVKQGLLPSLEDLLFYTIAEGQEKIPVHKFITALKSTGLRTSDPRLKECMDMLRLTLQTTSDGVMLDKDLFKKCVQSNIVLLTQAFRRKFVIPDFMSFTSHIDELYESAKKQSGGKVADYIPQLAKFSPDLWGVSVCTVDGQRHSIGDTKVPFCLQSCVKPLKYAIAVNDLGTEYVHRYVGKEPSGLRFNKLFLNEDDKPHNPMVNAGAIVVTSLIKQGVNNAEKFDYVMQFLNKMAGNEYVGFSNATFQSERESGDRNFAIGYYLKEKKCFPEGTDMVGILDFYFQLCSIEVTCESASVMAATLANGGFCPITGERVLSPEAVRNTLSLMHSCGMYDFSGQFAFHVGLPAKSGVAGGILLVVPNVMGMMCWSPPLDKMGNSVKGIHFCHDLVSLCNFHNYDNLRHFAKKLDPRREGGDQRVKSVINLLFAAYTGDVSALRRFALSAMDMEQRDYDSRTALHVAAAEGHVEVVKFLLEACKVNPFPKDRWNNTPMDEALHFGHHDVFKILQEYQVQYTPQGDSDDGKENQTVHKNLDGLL
Protocol: (§1) PAG inhibition analysis by different thiourea derivatives (THDP) was assayed in vitro, using the method of Heini for glutaminase activity determination, adapted to a microtiter procedure. This assay is based on the use of o-phthaldialdehyde/mercaptoethanol as a reagent for estimating ammonia released from glutamine. Briefly, 25 µl samples were added to 35 µl of a mixture of 150 mM potassium phosphate, 171 mM glutamine, 1 mM ammonium chloride, pH 8.0 and then incubated at 37°C for 45 min. The reaction was stopped by adding 10 µl 7% trichloroacetic acid, kept on ice for 15 min and centrifuged 5 min at 1000 × g. Aliquots of 5 µl/well were then mixed with 150 µl o-phthalaldehyde/mercaptoethanol reagent (14.4 ml 200 mM potassium phosphate, pH 7.4, 0.8 ml 72 mM mercaptoethanol in ethanol and 0.8 ml 186 mM o-phthaldialdehyde in ethanol). The samples were kept at room temperature in the dark and absorbance measured at 410 nm with a UV-Visible spectrophotometer (BioRad) after 45 min.
PAG activity inhibition was analyzed using 10 mM concentration. PAG activity in vitro was no affected by neomycin, lactitol and lactulose, rather, an increased activity was observed.

[2] = system: glutaminase activity in Caco2 cells; test: Glutaminase inhibition by metformin in Caco2 cells; type: cell-based
Protocol: 6-Diazo-5-oxo-L-norleucine (DON) (0–100 µM) was used as positive control.

[3] = system: Caco-2 cells; test: Cytotoxicity assay in Caco-2 cells after 24 h exposure; type: cell-based; settings: Caco-2, 24 h exposure
Protocol: Regression analysis of dose-response curves and calculation of IC50 were done according to standard procedure using appropriated software.
Acute toxicity test in animals is typically the first step in the evaluation of the effects of a chemical compound, and its primary purpose is to provide information on potential health hazards that may result from a short-term exposure. […] In the present work, cytotoxicity of a 24 h-exposure to selected inhibitors was evaluated in Caco-2 cells using the MTT method developed by Mosmann and modified by Denizot and Lang.

[4] = biological target: T2, glutaminase obtained from both kidney and intestine mitochondria (K-PAG) (Rattus norvegicus, UniProt P13264); test: In vitro inhibition screening of glutaminase activity (Heini method, ammonia released from glutamine); type: biochemical
T2 construct: an enriched preparation of glutaminase obtained from both kidney and intestine mitochondria; from tissue; host or cells: rat kidney and intestine mitochondria, solubilised with 1% Triton X-100
T2 sequence (P13264 55-674): T1 sequence (P13264 55-674)
Protocol: as §1, with “Aliquots of 5 µl/well were then mixed with 150 µl o-phthalaldehyde/mercaptoethanol reagent (14.4 ml 200 mM potassium phosphate, pH 7.4, 0.8 ml 72 mM mercaptoethanol in ethanol and 0.8 ml 186 mM o-phthaldialdehyde in ethanol).” left out
(§2) K-PAG activity was assayed, in presence and absence of the inhibitor; using isolated mitochondria from rat intestine and kidney, solubilized with 1% Triton X-100 as a source of glutaminase. Enzymatic activity was measured using a two-step assay as described by Lund. Protein concentration was determined following Bradford method using serum albumin as standard.
The first group analysed in this work is integrated by a small molecule compounds library derived from thiourea. […]

[5] = system: glutaminase activity (PAG) in Caco-2 cells; test: Inhibition assay in cell culture (glutamate produced from glutamine, HPLC); type: cell-based
Text: Results are shown on Figure 4.

[6] = system: C57BL/6 mice; test: Acute toxicity, oral administration to mice with free access to food and water; type: in vivo; settings: for Deaths before 6 h / Deaths before 12 h / Deaths before 24 h: N=4
Protocol: (§3) Lethal dose was determined by oral administration of the compounds to C57BL/6 mice. Thirty mice were supplied by the Centre of Production and Experimental animal of Espartinas, University of Seville, Spain. The animals were housed ten per cage, and maintained at constant room temperature (22°C ±2°C), with artificial light-dark cycle of 12 h and a relative humidity of 65%−70%, and free access to food and water during 2 weeks for acclimation. All animal procedures were performed with approval from the Sevilla University Animal Ethics Committees, under the guidelines of the directive 86/609/CEE of the European Union. Two assays in different conditions were performed. […] They were sacrificed 24 h latter and a macroscopic analysis of the tissues (lungs, heart, liver, stomach and intestine) was performed. […] In this case, mice were sacrificed 24 or 72 h latter and the same macroscopic analysis was performed.
(§4) The undiluted compound has low systemic toxicity but a marked local necrotizing and inflammatory effect when it is administered orally. […] There were few fluctuations in histopathological values but no changes appear to be drug-related or of significance. […] Therefore, we repeat the assay using feed animals.

[7] = system: swine K-PAG (from kidney); test: In vitro optimised kinetic assay with increasing inhibitor concentrations; type: biochemical
Protocol: as §2
First, increasing concentration of inhibitors (ranging from 1 µM to 10 mM) were added to standard and optimized enzymatic assay conditions with 99 mmol/l glutamine, 150 mmol/l phosphate and 100 µg K-PAG (Figure 1).

[8] = system: PAG; test: PAG kinetic parameters in absence and presence of THDP-17 (double reciprocal plot); type: biochemical, swine
Protocol: as §2
Figure 3 THDP17 inhibition kinetics. A lineal double reciprocal plot (1/v against 1/[Gln]) in absence (0) and presence (10 µM) of the inhibitor is shown. […] All experiments were performed in triplicates; p>0.05.

[9] = system: C57BL/6 mice; test: Acute toxicity, oral administration to 12 h fasted mice; type: in vivo; settings: for Deaths before 6 h / Deaths before 12 h: oral, N=3
Protocol: as §3, §4

[10] = fed mice, oral, 50 mg/Kg in DMSO
[11] = fed mice, oral, 300 mg/Kg in DMSO

effect on PAG activity in vitro [1]: no affected
Molecule: OC[C@H]1O[C@@H](O[C@@H]2[C@@H](CO)OC(O)(CO)[C@H]2O)[C@H](O)[C@@H](O)[C@H]1O (mixture of isomers) [lactulose]

Molecule: CN(C)C(=N)N=C(N)N [metformin]
inhibition kinetics ([1]; Dixon plot): competitive inhibition kinetics | inhibition at 10000 µM ([1]; read-out: PAG inhibition): 17.5% | inhibition at 100000 µM ([1]; read-out: PAG inhibition): 68% | inhibition rates at higher concentrations ([2]; Caco2, 50, 100 and 200 mM): did not yield higher inhibition rates | inhibition at 20000 µM ([2]; Homo sapiens, Caco-2, 72 h): 24%

effect on PAG activity in vitro [1]: no affected
Molecule: neomycin

effect on PAG activity in vitro [1]: no affected
Molecule: OC[C@@H](O)[C@@H](O[C@@H]1O[C@H](CO)[C@H](O)[C@H](O)[C@H]1O)[C@H](O)[C@@H](O)CO [lactitol]

Molecule: N-(3-methyl-3-butenyl)-N′-phenylthiourea [THDP-17]
cytotoxicity (cell viability) [3]: did not show cytotoxicity | inhibition of intestinal glutaminase activity ([4]; THDP-17 10 µM): 57.4±6.7% | inhibition of K-PAG activity (screening result) ([4]; thiourea library screening): could inhibit K-PAG activity | concentration at which PAG inhibition in cell cultures is effective ([5]; Caco-2): higher than 5 µM | PAG inhibition in cell cultures ([5]; Caco-2, 20 µM): 18±2.1% | PAG inhibition in cell cultures ([5]; Caco-2, 100 µM): 46±3.4% | deaths during the experimental period ([6]; fed mice): no deaths were observed | macroscopic organs analysis ([6]; fed mice sacrificed at 24 and 72 h, less pronounced than in fasted group): gastrointestinal ulcers and duodenum bleeding | Deaths before 6 h [6, 10]: 0 | Deaths before 12 h [6, 10]: 0 | Deaths before 24 h [6, 10]: 0 | Deaths before 12 h [6, 11]: 0 | Deaths before 24 h [6, 11]: 0 | Deaths before 6 h ([6]; fed mice, oral, 300 mg/Kg in DMSO, animal without water): 1 ^* | toxicity in vivo (conclusion) ([6]; mice, oral): no toxic in vivo | IC50 ([7]; 99 mmol/l glutamine, 150 mmol/l phosphate, 100 µg K-PAG): 3.9 ± 0.1 µM | extent of PAG inhibition at low milimolar concentrations ([7]; low milimolar concentrations, plateau): inhibits PAG activity partially | inhibition model ([8]; double reciprocal plot): not-pure-uncompetitive inhibitor; also recorded: uncompetitive inhibition | Vmax ([8]; with THDP-17 10 µM): 384.62 µmol/min | Vmax-ap ([8]; with THDP-17 10 µM, without inhibitor 0.67 mmol min^-1): 0.38 mmol/min | macroscopic findings in the gastrointestinal tract ([9]; also seen with DMSO vehicle alone): gastrointestinal ulcers and duodenum bleeding | histopathological damages in lungs, heart or liver ([9]; compared to DMSO alone): No essential or histopathological damages | Deaths before 6 h ([9]; 50 mg/Kg in DMSO): 1 | Deaths before 12 h ([9]; 50 mg/Kg in DMSO): 1 | Deaths before 6 h ([9]; 300 mg/Kg in DMSO): 1 | Deaths before 12 h ([9]; 300 mg/Kg in DMSO): 1 | Deaths before 6 h ([9]; 2000 mg/Kg in DMSO): 2 | Deaths before 12 h ([9]; 2000 mg/Kg in DMSO): 1
